Legend:
Type in all cases: in vivo
Stellaria media = experiment: Pre-emergence herbicidal action, STEME; set-up: key to Herbicidal action against STEME: % activity: 100 = plants have died, 0 = like control plants; conditions: for herbicidal action STEME / herbicidal activity STEME: dosage 320 g/ha; for herbicidal activity STEME: scored visually after 3 weeks vs untreated controls (100% = plants have died)
Method in brief: (§1)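 Seeds sown in sandy loam in pots and covered with soil; compounds formulated as WP or EC were sprayed onto the soil surface as aqueous suspension/emulsion at 600 to 800 l/ha water with 0.2% wetting agent. Greenhouse growth; visual damage scored after 3 weeks versus untreated controls (100% = plants died, 0% = like control).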

Abutilon theophrasti = experiment: Post-emergence herbicidal action, ABUTH; set-up: key: % herbicidal action vs untreated; 100 = plants died, 0 = like control
Method in brief: (§2)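 Treatment: post-emergence spray, one-leaf stage. Medium: sandy loam, greenhouse. Carrier: 600–800 l/ha water, 0.2% wetting agent. Read-out: visual % activity at ~3 weeks, untreated plants as reference.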

Cyperus esculentus = experiment: Post-emergence herbicidal action, CYPES; set-up: key: % herbicidal action vs untreated; 100 = plants died, 0 = like control; conditions: for Herbicidal action against CYPES: comparative experiment
Experimental: [table] 2. Post-Emergence Herbicidal Action Against Harmful Plants Seeds of monocotyledonous and dicotyledonous weed and crop plants are laid out in sandy loam soil in wood-fiber pots, covered with soil and cultivated in a greenhouse under good growth conditions. 2 to 3 weeks after sowing, the test plants are treated at the one-leaf stage. The compounds of the invention, formulated in the form of wettable powders (WP) or as emulsion concentrates (EC), are then sprayed onto the green parts of the plants in the form of an aqueous suspension or emulsion at a water application rate equating to 600 to 800 l/ha, with addition of 0.2% wetting agent. After the test plants have been left to stand in the greenhouse under optimal growth conditions for about 3 weeks, the action of the preparations is assessed visually in comparison to untreated controls (herbicidal action in percent (%): 100% activity=the plants have died, 0% activity=like control plants). […] The tables below illustrate, in an exemplary manner, the post-emergence herbicidal action of the compounds according to the invention, the herbicidal activity being stated in percent. In the experiments that follow, herbicidal action of numerous inventive compounds and the known compounds that are structurally closest from D1 (WO 2012/028579 A1) and D2 (WO 2018/202535 A1) were compared under the above-specified conditions by the pre-emergence and post-emergence method. The example numbers given in the tables relate to the compounds disclosed in the respective documents. In addition to the compounds disclosed in D1 and D2, the following compounds V-1 to V-14 that are encompassed by D1 or D2 but are not compounds specified therein were used in the comparative experiments: • V-1: 2-(methylsulfanyl)-3-(methylsulfinyl)-N-(1-methyl-1H-tetrazol-5-yl)-4-(trifluoromethyl)benzamide • V-2: 2-(methylsulfanyl)-3-(methylsulfonyl)-N-(1-methyl-1H-tetrazol-5-yl)-4-(trifluoromethyl)benzamide • V-3: 2,3-bis(ethylsulfanyl)-N-(1-methyl-1H-tetrazol-5-yl)-4-(trifluoromethyl)benzamide • V-4: 2-chloro-3-(ethylsulfanyl)-N-(1-methyl-1H-tetrazol-5-yl)-4-(trifluoromethyl)benzamide • V-5: 2-chloro-4-iodo-3-(methylsulfanyl)-N-(1-methyl-1H-tetrazol-5-yl)benzamide • V-6: 2-chloro-4-iodo-3-(methylsulfinyl)-N-(1-methyl-1H-tetrazol-5-yl)benzamide • V-7: 2-chloro-4-iodo-3-(methylsulfonyl)-N-(1-methyl-1H-tetrazol-5-yl)benzamide • V-8: 2-bromo-3-(methylsulfanyl)-N-(1-methyl-1H-tetrazol-5-yl)-4-(trifluoromethyl)benzamide • V-9: 2-bromo-3-(methylsulfinyl)-N-(1-methyl-1H-tetrazol-5-yl)-4-(trifluoromethyl)benzamide • V-10: 2-bromo-3-(methylsulfonyl)-N-(1-methyl-1H-tetrazol-5-yl)-4-(trifluoromethyl)benzamide • V-11: 2-bromo-3-(ethylsulfanyl)-N-(1-methyl-1H-tetrazol-5-yl)-4-(trifluoromethyl)benzamide • V-12: 2-bromo-3-(ethylsulfinyl)-N-(1-methyl-1H-tetrazol-5-yl)-4-(trifluoromethyl)benzamide • V-13: 2-bromo-3-(ethylsulfonyl)-N-(1-methyl-1-1H-tetrazol-5-yl)-4-(trifluoromethyl)benzamide • V-14: 2-cyclopropyl-3-(ethylsulfanyl)-N-(1-methyl-1H-tetrazol-5-yl)-4-(trifluoromethyl)benzamide Herbicidal Pre-Emergence Action: […]

Avena fatua = experiment: Post-emergence herbicidal action, AVEFA; set-up: key: % herbicidal action vs untreated; 100 = plants died, 0 = like control
Method in brief: as §2

Pharbitis purpurea = experiment: Pre-emergence herbicidal action, PHBPU; conditions: dosage 320 g/ha; for herbicidal activity PHBPU: scored visually after 3 weeks vs untreated controls (100% = plants have died)
Method in brief: as §1

Row | Structure (SMILES) | herbicidal action STEME (Stellaria media) [%] | herbicidal action ABUTH (Abutilon theophrasti; Dosage 80 g/ha) | herbicidal action AVEFA (Avena fatua; Dosage 80 g/ha) | further results
1 | Cc1ccc(C(=O)Nc2nnnn2C)c(Cl)c1C[S+](C)[O-] (racemic) [Example 1-288] | 90 | 90 |  | herbicidal action CYPES (Cyperus esculentus; Dosage 80 g/ha): 90
2 | CCS(=O)(=O)Cc1c(C(F)(F)F)ccc(C(=O)Nc2nnnn2C)c1C [Example 1-88] |  | 80 | 80 | herbicidal action PHBPU (Pharbitis purpurea): 90%
3 | Cc1c(C(=O)Nc2nnnn2C)ccc(C(F)F)c1C[S+](C)[O-] (centres unmarked) [Example 1-108] |  | 80 |  | 
4 | COc1c(C(=O)Nc2nnnn2C)ccc(C(F)(F)F)c1C[S+](C)[O-] (centres unmarked) [Example 1-135] | 80 | 90 |  | 
5 | CSCc1c(C)ccc(C(=O)Nc2nnnn2C)c1Cl [Example 1-287] | 90 | 100 | 80 | 
6 | CSCc1c(C(F)F)ccc(C(=O)Nc2nnnn2C)c1Cl [Example 1-320] |  | 100 | 100 | herbicidal activity PHBPU (Pharbitis purpurea): 80%; Herbicidal action against STEME (Stellaria media; comparative experiment, 20 g of a.i./ha): 90; herbicidal activity STEME (Stellaria media): 90%; Herbicidal action against ABUTH (Abutilon theophrasti; comparative experiment, post-emergence, 5 g of a.i./ha): 100; herbicidal action CYPES (Cyperus esculentus; Dosage 80 g/ha): 80
7 | CSCc1c(Cl)ccc(C(=O)Nc2nnnn2C)c1Cl [Example 1-559] | 90 |  |  | herbicidal action AVEFA (Avena fatua; post-emergence, dosage 80 g/ha): 100%; herbicidal action ABUTH (Abutilon theophrasti; post-emergence, dosage 80 g/ha): 90%; herbicidal action CYPES (Cyperus esculentus; post-emergence, dosage 80 g/ha): 90%
8 | COc1c(C(=O)Nc2nnnn2C)ccc(Cl)c1CSC [Example 1-570] | 80 |  |  | Herbicidal action against ABUTH (Abutilon theophrasti; post-emergence, dosage 80 g/ha): 90; Herbicidal action against CYPES (Cyperus esculentus; post-emergence, 5 g of a.i./ha): 60
9 | CCSCc1c(C(F)(F)F)ccc(C(=O)Nc2nnnn2CC)c1C [Example 2-86] |  |  |  | herbicidal action AVEFA (Avena fatua; post-emergence, dosage 80 g/ha): 100%; herbicidal action ABUTH (Abutilon theophrasti; post-emergence, dosage 80 g/ha): 80%; herbicidal action CYPES (Cyperus esculentus; post-emergence, dosage 80 g/ha): 80%
10 | CCn1nnnc1NC(=O)c1ccc(C(F)(F)F)c(CS(=O)(=O)CC)c1C [Example 2-88] |  | 80 | 90 | 
11 | CCn1nnnc1NC(=O)c1ccc(C(F)F)c(C[S+](C)[O-])c1C (centres unmarked) [Example 2-108] |  | 100 |  | 
12 | CCn1nnnc1NC(=O)c1ccc(C(F)F)c(C[S+](C)[O-])c1SC (centres unmarked) [Example 2-171] |  | 100 |  | herbicidal activity PHBPU (Pharbitis purpurea): 90%; herbicidal activity STEME (Stellaria media): 100%
13 | CCn1nnnc1NC(=O)c1ccc(S(C)(=O)=O)c(CS(C)(=O)=O)c1Cl [Example 2-280] | 80 |  |  | Herbicidal action against AVEFA (Avena fatua; post-emergence, dosage 80 g/ha): 90
14 | CCn1nnnc1NC(=O)c1ccc(C(F)(F)F)c(CS(=O)(=O)CC)c1Cl [Example 2-301] | 80 | 80 | 90 | 
15 | CCn1nnnc1NC(=O)c1ccc(Cl)c(CSC)c1Cl [Example 2-559] | 90 | 90 | 100 | 
16 | CCCn1nnnc1NC(=O)c1ccc(S(C)(=O)=O)c(CSC)c1C [Example 3-37] | 90 | 80 | 80 | 
17 | CCCn1nnnc1NC(=O)c1ccc(S(C)(=O)=O)c(CS(C)(=O)=O)c1C [Example 3-39] |  | 90 | 80 | 
18 | CCCn1nnnc1NC(=O)c1ccc(C(F)(F)F)c(CSCC)c1C [Example 3-86] |  | 80 | 80 | 
19 | CCCn1nnnc1NC(=O)c1ccc(C(F)(F)F)c(C[S+](C)[O-])c1OC (centres unmarked) [Example 3-135] | 100 | 100 | 100 | 
20 | CCCn1nnnc1NC(=O)c1ccc(C(F)(F)F)c(CSC)c1SC [Example 3-161] | 100 | 100 | 90 | 
21 | CCCn1nnnc1NC(=O)c1ccc(C(F)F)c(CSC)c1SC [Example 3-170] |  | 100 | 80 | herbicidal activity PHBPU (Pharbitis purpurea): 80%; herbicidal activity STEME (Stellaria media): 100%
22 | CCCn1nnnc1NC(=O)c1ccc(C(F)(F)F)c(CS(=O)(=O)CC)c1Cl [Example 3-301] | 90 | 80 | 90 | 
23 | CCCn1nnnc1NC(=O)c1ccc(C(F)(F)F)c(CSCC(F)(F)F)c1Cl [Example 3-311] | 90 | 100 | 100 | 
24 | CCCn1nnnc1NC(=O)c1ccc(C(F)(F)F)c(CS(C)(=O)=O)c1Br [Example 3-382] | 100 | 100 |  | herbicidal action CYPES (Cyperus esculentus; Dosage 80 g/ha): 80
25 | CCS(=O)(=O)c1c(C(F)(F)F)ccc(C(=O)Nc2nnnn2C)c1Br [Example V-13, 2-bromo-3-(ethylsulfonyl)-N-(1-methyl-1-1H-tetrazol-5-yl)-4-(trifluoromethyl)benzamide, reference compound] |  |  |  | Herbicidal action against AVEFA (Avena fatua; comparative experiment, post-emergence, 20 g of a.i./ha): 0; Herbicidal action against CYPES (Cyperus esculentus; post-emergence, 20 g of a.i./ha): 0

Source: patent US12492173B2, “Herbicidal substituted N-tetrazolyl aryl carboxamides” (Bayer Aktiengesellschaft, priority 2019, dated 2025)
